A short description of the data set: Solubility of Axitinib (FIG. 1). Format: physicochemical. To be noted: FIG. 1A. As for the experimental part: FIG. 1: pictures showing solubility of Axitinib. A is a picture in which Axitinib is dissolved in water and trifluoroethanol; B is a picture in which gelatin and polycaprolactone are dissolved in trifluoroethanol with and without the addition of Axitinib to the electrospinning solution.
Stirring the solution to forms a milky solution. When it stays for a long period of time, granular precipitation may occur. […] 0.25 g of gelatin and 0.25 g of polycaprolactone were dissolved in 5 ml of trifluoroethanol containing 20 μl of acetic acid to form a transparent solution, and 50 mg of Axitinib was added to form a light yellow transparent solution (B).

The values that follow come from US20220096717A1, “AXITINIB-LOADED NANOFIBER MEMBRANE, PREPARATION METHOD FOR THE SAME, AND ITS USE OF ANTI-ADHESION AFTER A SURGERY” (SHANGHAI CHILDREN'S MEDICAL CENTER, SHANGHAI JIAO TONG …, priority 2020, published 2022).

Consider `CNC(=O)c1ccccc1Sc1ccc2c(/C=C/c3ccccn3)n[nH]c2c1` [Axitinib], for which the “solubility in trifluoroethanol (TFE)” value (trifluoroethanol) was “quickly dissolved”. In addition, the solubility in water result (water) was “poorly soluble”.
